Type in all cases: physicochemical
Series [1] is described as follows: absorbance spectroscopy of marker in xylene solution. To be noted: for Ab. max. (estimated): not experimental, estimated based on the values of formulas (II) and (III); for Ab. max.: xylene solution having 0.5 ppm marker material, experimental. From the text: (§1) Chemical structures of other examples of anthrapyridone marker compounds derived based on the general formula (I) may be seen below. […] Table 1 identifies side groups of each anthrapyridone compound based on the general formula (I) and their absorption and emission characteristics. In Table 1, only the absorbance maximum and emission maximum values for the anthrapyridone compound markers with formula (II) and formula (III) are experimental. In the spectroscopic measurements, each test sample includes a xylene solution having 0.5 ppm marker material. For emission measurements 543 and 551 nm excitation wavelength are used, respectively. The absorbance maximum and emission maximum values of the formulas (IV)-(X) are not experimental values. These values are estimated values based on the values of the formulas (II) and (III).

A short description of series [2]: fluorescence emission spectroscopy of marker in xylene solution. To be noted: for Em. max. (estimated): not experimental, estimated based on the values of formulas (II) and (III); for Em. max.: xylene solution having 0.5 ppm marker material, excitation 543 nm for (II), 551 nm for (III), experimental.
Text: as §1

Series [3] is described as follows: absorbance spectrum (UV-Vis) of marker in diesel fuel, FIG. 2A. The conditions noted are these: diesel solution, about 0.5 ppm marker material. From the text:
FIG. 2A is a graph of an absorbance spectrum 10A of the marker material (the anthrapyridone compound of formula (III)) in diesel fuel. The absorbance spectrum 10A includes two absorbance maximums 11A and 11B at about 520 nm and about 550 nm wavelength values of the visible radiation range, respectively. A diesel solution having about 0.5 ppm marker material concentration may be used as a test sample for this spectral analysis. The absorbance spectroscopy instrument may be any type of absorbance spectroscopy instrument that is able to take absorbance spectrum in visible radiation region, i.e., 400-600 nm.
The absorbance spectrum shown in FIG. 2A is taken by a UV-Vis Spectroscopy instrument from Thermo Scientific Co in a test range of about 400-650 nm. The fluorescence spectrum shown in FIG. 2B is taken by a fluorescence spectroscopy instrument from Edinburgh Co.

`CCCCC(CC)CNc1ccc2c3c(cc(=O)n2CC(CC)CCCC)-c2ccccc2C(=O)c13` (centres unmarked) [formula (VI)]: the “Ab. max. (estimated)” value in series [1] was 540-560 nm. Also, the “Em. max. (estimated)” value in series [2] is given as 575-600 nm.

The compound `Cc1ccc(Nc2ccc3c4c(cc(=O)n3C)-c3ccccc3C(=O)c24)cc1` [formula (II), Solvent Red 52] showed an Ab. max. in series [1] of 543 nm. In series [2], the Em. max. entry was “no emission”.

With `O=C1c2ccccc2-c2cc(=O)n(Cc3ccccc3)c3ccc(NCc4ccccc4)c1c23` [formula (X)], in series [1], the “Ab. max. (estimated)” value is reported as 540-560 nm. Also, the “Em. max. (estimated)” value in series [2] is reported as 575-600 nm.

Regarding `Cn1c(=O)cc2c3c(c(NCc4ccccc4)ccc31)C(=O)c1ccccc1-2` [formula (IV), Solvent Red 150], the “Ab. max. (estimated)” value in series [1] is 540-560 nm. In addition, in series [2], the “Em. max. (estimated)” value is 575-600 nm.

Regarding `CCCCCCCCCCCNc1ccc2c3c(cc(=O)n2C)-c2ccccc2C(=O)c13` [formula (IX)], the “Ab. max. (estimated)” value in series [1] was 540-560 nm. Further, the “Em. max. (estimated)” value in series [2] was 575-600 nm.

In series [1], `Cn1c(=O)cc2c3c(c(NC4CCCCC4)ccc31)C(=O)c1ccccc1-2` [formula (III), Solvent Red 149] registered an Ab. max. of 551 nm. Moreover, in series [2], the Em. max. is 580 nm. In addition, in series [3], the “absorbance maximum 11A” value is on record as “about 520 nm” and the “absorbance maximum 11B” value is listed as “about 550 nm”.

As for `CNc1ccc2c3c(cc(=O)n2C)-c2ccccc2C(=O)c13` [formula (V)], the “Ab. max. (estimated)” value in series [1] is listed as 540-560 nm. Besides, the “Em. max. (estimated)” value in series [2] is reported as 575-600 nm.

Take `O=C1c2ccccc2-c2cc(=O)n(C3CCCCC3)c3ccc(NC4CCCCC4)c1c23` [formula (VIII)]: in series [1], the “Ab. max. (estimated)” value is recorded as 540-560 nm. For the same compound, the “Em. max. (estimated)” value in series [2] is 575-600 nm.

As for `CCCCC(CC)CNc1ccc2c3c(cc(=O)n2C)-c2ccccc2C(=O)c13` (centres unmarked) [formula (VII)], the “Ab. max. (estimated)” value in series [1] is given as 540-560 nm. Further, the “Em. max. (estimated)” value in series [2] is 575-600 nm.

(Values after patent US20240199964A1, “COMPOUNDS FOR MARKING LIQUIDS” (KUANTAG NANOTEKNOLOJILER GELISTIRME VE URETIM A.S., priority 2022, published 2024).)
